# Source: PubChem BioAssay (NCI)
#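 Five compound concentrations were applied to cells in 96-well plates for 48 hours; endpoints were derived by simple linear interpolation of the resulting dose-response curve. The concentration for 50% growth inhibition is given as GI50. At the TGI there is no net growth.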
# What was measured:
# Experiment in all cases: NCI-60 cell line screen, 48 h
# CCRF-CEM leukemia = system: CCRF-CEM leukemia
# SNB-75 CNS = system: SNB-75 CNS
# SK-OV-3 ovarian = system: SK-OV-3 ovarian
# A549 NSCLC = system: A549 NSCLC
# SF-295 CNS = system: SF-295 CNS
# SK-MEL-28 melanoma = system: SK-MEL-28 melanoma
# NCI-H522 lung = system: NCI-H522 lung
# HOP-62 NSCLC = system: HOP-62 NSCLC
# OVCAR-4 ovarian = system: OVCAR-4 ovarian
# RPMI-8226 leukemia = system: RPMI-8226 leukemia
# OVCAR-8 ovarian = system: OVCAR-8 ovarian
# M14 melanoma = system: M14 melanoma
# HCT-116 colon = system: HCT-116 colon
# HT29 colon = system: HT29 colon
# SW-620 colon = system: SW-620 colon
# OVCAR-5 ovarian = system: OVCAR-5 ovarian
# EKVX NSCLC = system: EKVX NSCLC
# HCC-2998 colon = system: HCC-2998 colon
# OVCAR-3 ovarian = system: OVCAR-3 ovarian
# SF-539 CNS = system: SF-539 CNS
# SK-MEL-2 melanoma = system: SK-MEL-2 melanoma
# DU-145 prostate = system: DU-145 prostate
# MDA-MB-231 breast = system: MDA-MB-231 breast
# A498 renal = system: A498 renal
# SK-MEL-5 melanoma = system: SK-MEL-5 melanoma
# RXF 393 renal = system: RXF 393 renal
# UO-31 renal = system: UO-31 renal
# UACC-62 melanoma = system: UACC-62 melanoma
# T-47D breast = system: T-47D breast
# SNB-19 CNS = system: SNB-19 CNS
# IGROV1 ovarian = system: IGROV1 ovarian
# CAKI-1 renal = system: CAKI-1 renal
# HS 578T breast = system: HS 578T breast
# MCF7 breast = system: MCF7 breast
# BT-549 breast = system: BT-549 breast
# LOX IMVI melanoma = system: LOX IMVI melanoma
# NCI-H226 lung = system: NCI-H226 lung
# HOP-92 NSCLC = system: HOP-92 NSCLC
# UACC-257 melanoma = system: UACC-257 melanoma
# U251 CNS = system: U251 CNS
# 786-0 renal = system: 786-0 renal
# NCI/ADR-RES ovarian = system: NCI/ADR-RES ovarian
# MDA-MB-435 = system: MDA-MB-435
# MOLT-4 leukemia = system: MOLT-4 leukemia
# SF-268 CNS = system: SF-268 CNS
# SN12C renal = system: SN12C renal
# PC-3 prostate = system: PC-3 prostate
# NCI-H460 lung = system: NCI-H460 lung
# K-562 leukemia = system: K-562 leukemia
# COLO 205 colon = system: COLO 205 colon
# NCI-H23 lung = system: NCI-H23 lung
# HCT-15 colon = system: HCT-15 colon
# SR leukemia = system: SR leukemia
# HL-60(TB) leukemia = system: HL-60(TB) leukemia
# TK-10 renal = system: TK-10 renal
# MALME-3M melanoma = system: MALME-3M melanoma
# KM12 colon = system: KM12 colon
# ACHN renal = system: ACHN renal
smiles,measurement,setting,value
N#Cc1c(N)nc(N2CCOCC2)c(C#N)c1-c1ccccc1Cl,GI50,CCRF-CEM leukemia,45 µM
same,TGI,CCRF-CEM leukemia,> 100 µM
same,GI50,SNB-75 CNS,0.414 µM
same,TGI,SNB-75 CNS,32.6 µM
same,GI50,SK-OV-3 ovarian,41.2 µM
same,TGI,SK-OV-3 ovarian,> 100 µM
same,GI50,A549 NSCLC,66.5 µM
same,TGI,A549 NSCLC,> 100 µM
same,GI50,SF-295 CNS,38.5 µM
same,TGI,SF-295 CNS,> 100 µM
same,GI50,SK-MEL-28 melanoma,33.6 µM
same,TGI,SK-MEL-28 melanoma,> 100 µM
same,GI50,NCI-H522 lung,0.0236 µM
same,TGI,NCI-H522 lung,2.81 µM
same,GI50,HOP-62 NSCLC,> 100 µM
same,TGI,HOP-62 NSCLC,> 100 µM
same,GI50,OVCAR-4 ovarian,14.5 µM
same,TGI,OVCAR-4 ovarian,85.3 µM
same,GI50,RPMI-8226 leukemia,21.5 µM
same,TGI,RPMI-8226 leukemia,> 100 µM
same,GI50,OVCAR-8 ovarian,42 µM
same,TGI,OVCAR-8 ovarian,> 100 µM
same,GI50,M14 melanoma,60.9 µM
same,TGI,M14 melanoma,> 100 µM
same,GI50,HCT-116 colon,74.7 µM
same,TGI,HCT-116 colon,> 100 µM
same,GI50,HT29 colon,57 µM
same,TGI,HT29 colon,> 100 µM
same,GI50,SW-620 colon,> 100 µM
same,TGI,SW-620 colon,> 100 µM
same,GI50,OVCAR-5 ovarian,26.4 µM
same,TGI,OVCAR-5 ovarian,> 100 µM
same,GI50,EKVX NSCLC,37.6 µM
same,TGI,EKVX NSCLC,> 100 µM
same,GI50,HCC-2998 colon,49.8 µM
same,TGI,HCC-2998 colon,> 100 µM
same,GI50,OVCAR-3 ovarian,17.3 µM
same,TGI,OVCAR-3 ovarian,87.1 µM
same,GI50,SF-539 CNS,43.5 µM
same,TGI,SF-539 CNS,> 100 µM
same,GI50,SK-MEL-2 melanoma,41.9 µM
same,TGI,SK-MEL-2 melanoma,> 100 µM
same,GI50,DU-145 prostate,93.4 µM
same,TGI,DU-145 prostate,> 100 µM
same,GI50,MDA-MB-231 breast,31.2 µM
same,TGI,MDA-MB-231 breast,> 100 µM
same,GI50,A498 renal,2.28 µM
same,TGI,A498 renal,25.2 µM
same,GI50,SK-MEL-5 melanoma,32.4 µM
same,TGI,SK-MEL-5 melanoma,> 100 µM
same,GI50,RXF 393 renal,17.5 µM
same,TGI,RXF 393 renal,72.3 µM
same,GI50,UO-31 renal,14.5 µM
same,TGI,UO-31 renal,43.4 µM
same,GI50,UACC-62 melanoma,18.9 µM
same,TGI,UACC-62 melanoma,> 100 µM
same,GI50,T-47D breast,21.2 µM
same,TGI,T-47D breast,> 100 µM
same,GI50,SNB-19 CNS,48.5 µM
same,TGI,SNB-19 CNS,> 100 µM
same,GI50,IGROV1 ovarian,14.7 µM
same,TGI,IGROV1 ovarian,41.7 µM
same,GI50,CAKI-1 renal,32.4 µM
same,TGI,CAKI-1 renal,> 100 µM
same,GI50,HS 578T breast,23.6 µM
same,TGI,HS 578T breast,> 100 µM
same,GI50,MCF7 breast,17.7 µM
same,TGI,MCF7 breast,88.7 µM
same,GI50,BT-549 breast,30.5 µM
same,TGI,BT-549 breast,> 100 µM
same,GI50,LOX IMVI melanoma,56 µM
same,TGI,LOX IMVI melanoma,> 100 µM
same,GI50,NCI-H226 lung,55.5 µM
same,TGI,NCI-H226 lung,> 100 µM
same,GI50,HOP-92 NSCLC,16.9 µM
same,TGI,HOP-92 NSCLC,72.4 µM
same,GI50,UACC-257 melanoma,47.9 µM
same,TGI,UACC-257 melanoma,> 100 µM
same,GI50,U251 CNS,50 µM
same,TGI,U251 CNS,> 100 µM
same,GI50,786-0 renal,62.1 µM
same,TGI,786-0 renal,> 100 µM
same,GI50,NCI/ADR-RES ovarian,40.2 µM
same,TGI,NCI/ADR-RES ovarian,> 100 µM
same,GI50,MDA-MB-435,80.2 µM
same,TGI,MDA-MB-435,> 100 µM
same,GI50,MOLT-4 leukemia,34.2 µM
same,TGI,MOLT-4 leukemia,> 100 µM
same,GI50,SF-268 CNS,25.4 µM
same,TGI,SF-268 CNS,85.7 µM
same,GI50,SN12C renal,35.8 µM
same,TGI,SN12C renal,> 100 µM
same,GI50,PC-3 prostate,22.6 µM
same,TGI,PC-3 prostate,> 100 µM
same,GI50,NCI-H460 lung,26.8 µM
same,TGI,NCI-H460 lung,> 100 µM
same,GI50,K-562 leukemia,60.9 µM
same,TGI,K-562 leukemia,> 100 µM
same,GI50,COLO 205 colon,38.1 µM
same,TGI,COLO 205 colon,> 100 µM
same,GI50,NCI-H23 lung,37.7 µM
same,TGI,NCI-H23 lung,> 100 µM
same,GI50,HCT-15 colon,41.4 µM
same,TGI,HCT-15 colon,> 100 µM
Cc1[nH]nc2c1N=C(c1ccccc1Cl)c1cc([N+](=O)[O-])ccc1N2,GI50,CCRF-CEM leukemia,0.76 µM
same,TGI,CCRF-CEM leukemia,> 25 µM
same,GI50,SNB-75 CNS,0.0215 µM
same,GI50,SK-OV-3 ovarian,1.62 µM
same,TGI,SK-OV-3 ovarian,> 25 µM
same,GI50,SF-295 CNS,0.256 µM
same,GI50,SR leukemia,0.11 µM
same,TGI,SR leukemia,> 25 µM
same,GI50,SK-MEL-28 melanoma,> 25 µM
same,TGI,SK-MEL-28 melanoma,> 25 µM
same,GI50,NCI-H522 lung,0.139 µM
same,TGI,NCI-H522 lung,> 25 µM
same,GI50,HL-60(TB) leukemia,0.104 µM
same,TGI,HL-60(TB) leukemia,> 25 µM
same,GI50,TK-10 renal,9.23 µM
same,TGI,TK-10 renal,> 25 µM
same,GI50,HOP-62 NSCLC,1.02 µM
same,TGI,HOP-62 NSCLC,> 25 µM
same,GI50,OVCAR-4 ovarian,5.15 µM
same,TGI,OVCAR-4 ovarian,> 25 µM
same,GI50,RPMI-8226 leukemia,0.97 µM
same,TGI,RPMI-8226 leukemia,> 25 µM
same,GI50,OVCAR-8 ovarian,> 25 µM
same,TGI,OVCAR-8 ovarian,> 25 µM
same,GI50,M14 melanoma,0.687 µM
same,TGI,M14 melanoma,> 25 µM
same,GI50,HCT-116 colon,0.337 µM
same,TGI,HCT-116 colon,> 25 µM
same,GI50,HT29 colon,0.979 µM
same,TGI,HT29 colon,> 25 µM
same,GI50,MALME-3M melanoma,> 25 µM
same,TGI,MALME-3M melanoma,> 25 µM
same,GI50,SW-620 colon,0.14 µM
same,TGI,SW-620 colon,> 25 µM
same,GI50,OVCAR-5 ovarian,> 25 µM
same,TGI,OVCAR-5 ovarian,> 25 µM
same,GI50,HCC-2998 colon,14.6 µM
same,TGI,HCC-2998 colon,> 25 µM
same,GI50,OVCAR-3 ovarian,0.145 µM
same,TGI,OVCAR-3 ovarian,0.836 µM
same,GI50,SF-539 CNS,0.132 µM
same,TGI,SF-539 CNS,> 5.27 µM
same,GI50,SK-MEL-2 melanoma,0.126 µM
same,TGI,SK-MEL-2 melanoma,> 25 µM
same,GI50,DU-145 prostate,0.891 µM
same,TGI,DU-145 prostate,> 25 µM
same,GI50,MDA-MB-231 breast,4.42 µM
same,TGI,MDA-MB-231 breast,> 25 µM
same,GI50,A498 renal,0.151 µM
same,TGI,A498 renal,1.62 µM
same,GI50,SK-MEL-5 melanoma,0.204 µM
same,TGI,SK-MEL-5 melanoma,> 25 µM
same,GI50,RXF 393 renal,0.245 µM
same,TGI,RXF 393 renal,1.92 µM
same,GI50,KM12 colon,0.338 µM
same,TGI,KM12 colon,> 13.7 µM
same,GI50,UO-31 renal,4.94 µM
same,TGI,UO-31 renal,> 25 µM
same,GI50,T-47D breast,> 25 µM
same,TGI,T-47D breast,> 25 µM
same,GI50,SNB-19 CNS,> 25 µM
same,TGI,SNB-19 CNS,> 25 µM
same,GI50,IGROV1 ovarian,> 8.07 µM
same,TGI,IGROV1 ovarian,> 25 µM
same,GI50,CAKI-1 renal,2.12 µM
same,TGI,CAKI-1 renal,> 22.2 µM
same,GI50,HS 578T breast,0.223 µM
same,TGI,HS 578T breast,> 25 µM
same,GI50,MCF7 breast,0.142 µM
same,TGI,MCF7 breast,> 25 µM
same,GI50,BT-549 breast,> 15.1 µM
same,TGI,BT-549 breast,> 25 µM
same,GI50,LOX IMVI melanoma,1.92 µM
same,TGI,LOX IMVI melanoma,> 25 µM
same,GI50,NCI-H226 lung,4.08 µM
same,TGI,NCI-H226 lung,> 19.6 µM
same,GI50,HOP-92 NSCLC,> 18.9 µM
same,TGI,HOP-92 NSCLC,> 25 µM
same,GI50,ACHN renal,1.07 µM
same,TGI,ACHN renal,> 15.3 µM
same,GI50,UACC-257 melanoma,> 25 µM
same,TGI,UACC-257 melanoma,> 25 µM
same,GI50,U251 CNS,0.511 µM
same,TGI,U251 CNS,> 25 µM
same,GI50,786-0 renal,1.35 µM
same,TGI,786-0 renal,> 17.1 µM
same,GI50,NCI/ADR-RES ovarian,0.728 µM
same,TGI,NCI/ADR-RES ovarian,> 25 µM
same,GI50,MOLT-4 leukemia,14.8 µM
same,TGI,MOLT-4 leukemia,> 25 µM
same,GI50,SF-268 CNS,1.14 µM
same,TGI,SF-268 CNS,> 25 µM
same,GI50,SN12C renal,3.29 µM
same,TGI,SN12C renal,> 25 µM
same,GI50,PC-3 prostate,0.233 µM
same,TGI,PC-3 prostate,> 25 µM
same,GI50,NCI-H460 lung,0.484 µM
same,TGI,NCI-H460 lung,> 25 µM
same,GI50,K-562 leukemia,0.175 µM
same,TGI,K-562 leukemia,> 25 µM
same,GI50,COLO 205 colon,0.981 µM
same,TGI,COLO 205 colon,> 25 µM
same,GI50,NCI-H23 lung,5.06 µM
same,TGI,NCI-H23 lung,> 25 µM
same,GI50,HCT-15 colon,0.198 µM
same,TGI,HCT-15 colon,> 25 µM
